Measured values as given in patent US8410278B2, “Method for preparing a non-hydratable crystal form” (E I du Pont de Nemours and Company, priority 2008, dated 2013).

Columns and labels:
[1] = type: physicochemical
Excerpt: Remarkably water is now discovered to work very well as a solvent in the heated liquid phase for converting Polymorph B to Polymorph A. This is particularly unexpected, because Polymorph B, which can accommodate significant amounts of water in its crystal lattice, can be anticipated to be favored over anhydrous Polymorph A in an aqueous medium. Nevertheless, water is now found to be particularly suitable in forming the liquid phase for conversion of Polymorph B to Polymorph A. Conversion proceeds to near 100% completion and in high yields within commercially convenient time periods at temperatures not exceeding about 100° C. (i.e. the normal boiling point of water). […] Alternatively if Polymorph A is in high concentration in water, Polymorph A can be isolated by evaporation of the water.

[2] = Crystal form stability during long-term storage; type: physicochemical
Excerpt: (§1) A method has now been discovered for the preparation of a non-hydratable polymorph of Compound 1 (Polymorph A) from a hydratable polymorph of Compound 1 (Polymorph B) that typically is initially formed by procedures for preparing Compound 1. […] This surprising stability facilitates a more consistent assay of Compound 1. These characteristics also make Polymorph A of Compound 1 well suited for the production of long-lasting stable solid formulations, enabling specifying a stable active ingredient content.

[3] = Water uptake/loss on exposure to variations in atmospheric humidity; type: physicochemical
Excerpt: as §1

SMILES: CNC(=O)c1cc(C#N)cc(C)c1NC(=O)c1cc(Br)nn1-c1ncccc1Cl [Polymorph A, 3-bromo-1-(3-chloro-2-pyridinyl)-N-[4-cyano-2-methyl-6-[(methylamino)carbonyl]phenyl]-1H-pyrazole-5-carboxamide]
- Solubility in water [1]: little solubility in water
- Conversion to Polymorph B during long-term storage [2]: does not typically convert to Polymorph B
- Change of water content on exposure to variations in atmospheric humidity [3]: does not gain or lose appreciable amounts of water

SMILES: CNC(=O)c1cc(C#N)cc(C)c1NC(=O)c1cc(Br)nn1-c1ncccc1Cl [Polymorph B, 3-bromo-1-(3-chloro-2-pyridinyl)-N-[4-cyano-2-methyl-6-[(methylamino)carbonyl]phenyl]-1H-pyrazole-5-carboxamide]
- Change of water content on exposure to variations in atmospheric humidity [3]: changes significantly
